Changes are numbered by the printed parent chain.
T1: OR2T11 (Homo sapiens, UniProt Q8NH01)
T1 sequence (Q8NH01 1-316): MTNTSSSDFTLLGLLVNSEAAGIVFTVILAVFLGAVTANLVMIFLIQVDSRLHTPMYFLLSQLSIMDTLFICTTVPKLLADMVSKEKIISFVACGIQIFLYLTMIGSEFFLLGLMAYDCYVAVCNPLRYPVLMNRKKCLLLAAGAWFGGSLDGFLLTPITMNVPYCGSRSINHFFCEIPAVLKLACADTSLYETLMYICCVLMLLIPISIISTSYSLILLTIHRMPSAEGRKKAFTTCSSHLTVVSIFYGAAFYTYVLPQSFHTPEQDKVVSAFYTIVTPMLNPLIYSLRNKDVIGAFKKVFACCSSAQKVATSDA

B1: OR4S2: original human olfactory receptor OR4S2, SEQ ID NO: 18 (protein, listed as Homo sapiens)
chain: MEKINNVTEFIFWGLSQSPEIEKVCFVVFSFFYIIILLGNLLIMLTVCLSNLFKSPMYFFLSFLSFVDICYSSVTAPKMIVDLLAKDKTISYVGCMLQLFGVHFFGCTEIFILTVMAYDRYVAICKPLHYMTIMNRETCNKMLLGTWVGGFLHSIIQVALVVQLPFCGPNEIDHYFCDVHPVLKLACTETYIVGVVVTANSGTIALGSFVILLISYSIILVSLRKQSAEGRRKALSTCGSHIAMVVIFFGPCTFMYMRPDTTFSEDKMVAVFYTIITPMLNPLIYTLRNAEVKNAMKKLWGRNVFLEAKGK
B2: consensus OR2T1: consensus olfactory receptor polypeptide (protein)
chain: MEEYNTSSTDFTFMGLFNRKETSGLLFAIISIIFFTALMANGVMIFLIQTDLRLHTPMYFLLSHLSFIDMMYISTIVPKMLVDYLLGQRTISFVGCTAQHFLYLTLVGAEFFLLGLMAYDRYVAICNPLRYPVLMSRRVCWMIIAGSWFGGSLDGFLLTPITMSFPFCNSREINHFFCEAPAVLKLACADTALYETVMYVCCVLMLLIPFSVVIASYARILTTVHRMSSVEGRKKAFATCSSHMTVVTLFYGAAMYTYMLPHSYHKPAQDKVFSVFYTILTPMLNPLIYSLRNKDVTGALKRALGRFKGPQRVSGGVF
modifications: OR2T1 consensus-c
notes: consensus olfactory receptor polypeptide
B3: consensus OR2T29: consensus olfactory receptor polypeptide (protein)
chain: MANITWMANHTGRSDFILVGLFSQSKHPALLCVVIFVVFLMALSGNAILILLIHSDAHLHTPMYFFISQLSLMDVMYISVTVPKMLMDQVMGVNKISAPECGMQMFLYLTLAGSEFFLLAAMAYDRYVAICHPLRYPVLMNHRVCLLLVSGCWFLGSVDGFMLTPITMTFPFCRSREIHHFFCEVPAVMKLSCSDTSLYETLMYLCCVLMLLIPVTVISSSYSFILLTIHRMNSAEGRKKAFATCSSHMTVVILFYGAAVYTYMLPSSYHTPEKDMMVSVFYTILTPVLNPLIYSLRNKDVTGALKKMLNVGSVFQETIK
modifications: OR2T29 consensus-c
notes: as for B2
B4: consensus OR2T5: consensus olfactory receptor polypeptide (protein)
chain: B3 chain with R13K, V149A
modifications: OR2T5 consensus-c
notes: as for B2
B5: consensus OR2T4: consensus olfactory receptor polypeptide (protein)
chain: MANITWMANHTGWSDFILVGLFRQSKHPALLCVVIFVVFLMALSGNAVLILLIHSDAHLHTPMYFFISQLSLMDMMYISVTVPKMLLDQVMGVNKISAPECGMQMFLYVTLAGSEFFLLATMAYDRYVAICHPLRYPVLMNHRVCLFLASGCWFLGSVDGFTFTPITMTFPFCRSREIHHFFCEVPAVLKLSCSDTSLYEIFMYLCCVLMLLIPVTVISSSYLFILLTIHRMNSAEGRKKAFATCSSHMTVVILFYGAAIYTYMLPSSYHTPEKDMMVSVFYTILTPVLNPLIYSLRNKDVMGALKKMLNVGPVFQETMK
modifications: OR2T4 consensus-c
notes: as for B2
B6: consensus OR4K17: consensus olfactory receptor polypeptide (protein)
chain: MESMELLNQSQVSEFILLGLTSSQDIQFLLFALFSVIYVVTVLGNLLIVVTVFNTPNLNTPMYFLLGNLSFVDMTLASFATPKMILNLVKKQKTISFAGCFTQIFLLHLLGGVEMVLLVSMAYDRYVAICKPLHYMTIMNKKVCVLLVVTSWLLGLLHSGLQIPFVVNLPFCGPNVVDSIFCDLPLVTKLACIDTYFVQIVIVANSGMISLSCFIILLISYSLILITIRNHSSTGQSKARSTLTAHITVVILFFGPCIFIYIWPFSNHSVDKFLAVFYTIITPILNPIIYTLRNKEMKTAMKKLWRAFVNSREDT
modifications: OR4K17 consensus-c
notes: as for B2
B7: consensus OR2T27: consensus olfactory receptor polypeptide (protein)
chain: MEWGNYSMYADFVLLGLFSNTRFPWLLFALILLVFVISIASNTVMIILIHIDSRLHTPMYFLLSQLSLMDILYISTIVPKMLVDQVMGQRAISFAGCTAQHFLYLTLAGAEFFLLGLMSYDRYVAICNPLRYPVLMSRKVCLLIVAAAWLGGSIDGFLLTPVTMQFPFCASREINHFFCEVPALLKLSCTDTSAYETAMYVCCIMMLLIPFSVISASYTRILITVYRMSEAEGRRKAVATCSSHMVVVSLFYGAAMYTYVLPHSYHTPEQDKAVSAFYTILTPMLNPLIYSLRNKDVTGALQKALGRCVSSGKVTTF
modifications: OR2T27 consensus-c
notes: as for B2
B8: consensus OR4E2: consensus olfactory receptor polypeptide (protein)
chain: MDSLNQTRVTEFVFLGLTDNWVLEILFFMAFSAIYVLTLLGNILIIVTIVFTPRLHTPMYFFLSNLSFIDICHSSVTVPKMLEGLLLERKTISFDNCIAQLFFLHLFACAEIFLLTIMAYDRYVAICTPLHYPNVMNMRVCVQLVFALWLGGTVHSLVQTFLTIRLPYCGPNIIDSYFCDVPPVIKLACTDTYLTGMLIVSNSGTISLTCFLALVTSYTVILVSLRKQSAEGRRKALSTCSAHFMVVALFFGPCIFIYTRPDTSFSIDKVVSVFYTVVTPLLNPLIYTLRNEEVKSAMKQLRQRQVFFTKSY
modifications: OR4E2 consensus-c
notes: as for B2

Molecular target: T1, OR2T11
Experiment: not given
Details: Block E et al., Nat. Prod. Rep. 2017; cited from earlier work

Q: With `CCCCS` [1-butanethiol] as the molecule, how does the “response of OR2T11” value read?
A: responds

Q: With `CCCS` [1-propanethiol] as the molecule, how does the “response of OR2T11” value read?
A: responds

Q: Which “response of OR2T11” value does the source give for `CCC(C)S` (stereo not drawn) [2-butanethiol] here?
A: responds

Q: Which “response of OR2T11” value does the source give for `CC(C)CS` [2-methyl-1-propanethiol] here?
A: responds

Q: For `CC(C)(C)S` [2-methyl-2-propanethiol], which “response of OR2T11” value is on record?
A: responds

Q: For `CCCC(C)S` (stereo not drawn) [2-pentanethiol], which “response of OR2T11” value is on record?
A: responds

Q: With `CC(C)S` [2-propanethiol] as the molecule, how does the “response of OR2T11” value read?
A: responds

Q: Which “response of OR2T11” value does the source give for `CC(C)C(C)S` (stereo not drawn) [3-methyl-2-butanethiol] here?
A: responds

Q: Which “response of OR2T11” value does the source give for `SC1CCCC1` [cyclopentanethiol] here?
A: responds

Q: Which “response of OR2T11” value does the source give for `CCS` [ethanethiol] here?
A: responds

System: HEK293 cells expressing olfactory receptor
Experiment: Luciferase assay: signal to 100 μM sulfur compounds in the presence or absence of a copper ion
Assay type: cell-based, human
Details: 100 μM odorant
Description: A reaction solution as to each consensus olfactory receptor prepared in Examples described above was prepared according to the composition shown in Table 4, left standing for 20 minutes in a clean bench, and then added to each well of a 96-well plate (Becton, Dickinson and Company). The original olfactory receptor was used as to OR4S2. Composition shown in Table 20 was used as to OR11H2 and OR4E2. Subsequently, 100 μL of HEK293 cells suspended in DMEM (Nacalai Tesque, Inc.) was inoculated at 2×10^5 cells/cm^2 to each well, and cultured for 24 hours in an incubator kept at 37° C. and 5% CO2. Cells expressing no olfactory receptor (Mock) were provided as a control.
[…] Under a copper ion addition condition, the test substance solution was adjusted to contain 30 μM copper(II) chloride (FUJIFILM Wako Pure Chemical Corp.) in addition to the odorant. The cells were cultured for 4 hours in a CO2 incubator and the luciferase gene was expressed sufficiently in the cells. Luciferase activity was measured using Dual-Glo™ luciferase assay system (Promega Corp.) in accordance with the operation manual of the product. A luminescence value derived from firefly luciferase induced by test substance stimulation in each well of the 96-well plate was divided by a luminescence value derived from Renilla luciferase to calculate a value (fluc/hRluc) as a signal, which was then used in analysis. The signal under each transfection condition was normalized with the signal value (fluc/hRluc) under an odorant stimulation-free condition defined as 0% and the signal value (fluc/hRluc) by stimulation with 10 μM forskolin defined as 100%, and used as a response (%) in analysis.

Q: With B1 as the molecule, how does the “responsiveness to methyl mercaptan, dimethyl sulfide, dimethyl disulfide, or dimethyl trisulfide in the presence of a copper ion in comparison with that in the absence” value (“responsiveness to methyl mercaptan” below) read?
A: improved in responsiveness

Q: Which “responsiveness to methyl mercaptan” value does the source give for B2 here?
A: improved in responsiveness

Q: For B3, which “responsiveness to methyl mercaptan” value is on record?
A: improved in responsiveness

Q: For B4, which “responsiveness to methyl mercaptan” value is on record?
A: improved in responsiveness

Q: For B5, which “responsiveness to methyl mercaptan” value is on record?
A: improved in responsiveness

Q: Which “responsiveness to methyl mercaptan” value does the source give for B6 here?
A: improved in responsiveness

Q: For B7, which “responsiveness to methyl mercaptan” value is on record?
A: improved in responsiveness

Q: With B8 as the molecule, how does the “responsiveness to methyl mercaptan” value read?
A: improved in responsiveness

Reference: US20240279302A1, “OLFACTORY RECEPTOR EXPRESSING METHOD AND RESPONSE MEASUREMENT METHOD” (Kao Corporation, priority 2021, published 2024)
